Where two headings read alike, the source gives them in different places.
Columns and labels:
Assay type in all cases: in vivo, human
[1] = tested on: patients with HIT; assay: Clinical trial of 304 patients with HIT with or without thrombosis who received argatroban; outcome by platelet count on day of argatroban cessation
Source text: In a clinical trial of 304 patients with HIT with or without thrombosis who received argatroban, 165 patients with active HIT had platelet count data available for the day of argatroban cessation. […] Therefore, we recommend these approaches for refining the existing method of therapy in patients with HIT receiving Argatroban.

[2] = tested on: patient with HIT with thrombosis (HITT); assay: Example 1 patient case: Argatroban monotherapy in HIT with thrombosis, serial platelet counts
Method: The patient is a person with a history of hypertension and hyperlipidemia who presented to the emergency department (ED) complaining of chest pain. […] The patient was admitted to the Coronary Care Unit and was treated with aspirin, intravenous nitroglycerin, metoprolol, and intravenous heparin. The platelet count on admission was 212×10^9/L. Serial cardiac enzymes and troponin concentrations were negative for a myocardial infarction. […] Coronary artery bypass grafting was performed 2 days later with an uneventful postoperative course. They were discharged from the hospital 7 days after the surgery in good condition and their platelet count was 136×10^9/L. One week later, the patient returned to the ED complaining of the acute onset of a cold and painful swollen left leg. Their medications included aspirin 325 mg daily, metoprolol 75 mg twice daily, NitroDur 20 mg daily and atorvastatin 20 mg daily. The physical examination was normal with the exception of mild hypertension and a cold, swollen left leg with blue discoloration from the knee down. In addition, the left popliteal pulse was faint and the left ankle pulse was non-palpable. […] Intravenous heparin was started and the patient was sent to the operating room for emergency surgery. A femoro-popliteal bypass was performed with a graft and there was an initial return of arterial blood flow to the lower leg. However, before the incision was closed, the graft re-occluded. The graft was opened and explored with an embolectomy catheter. A large amount of whitish granular material was found and subsequently removed from the distal end of the graft. Pulses returned to the lower leg and the incision was closed. By the time the closure was complete, the graft had again re-occluded. The finding of a platelet-rich “white clot” during this surgery along with thrombocytopenia alerted physicians to suspect HIT with thrombosis (HITT). Heparin was immediately discontinued and the DTI Argatroban was initiated (at 2 mcg/kg/min) that evening (day 1 of Argatroban). On the following day, the patient's left lower leg remained cold, blue and pulseless. They were transferred to another hospital where an amputation was performed. Argatroban was continued for 10 days. The platelet count began improving with the following serial platelet counts: 62×10^9/L on day 4, 78×10^9/L on day 6, 110×10^9/L on day 8 and 180×10^9/L on day 10. The patient was measured for a prosthetic leg and they underwent intense physical therapy for 6 months.

[3] = tested on: patient with HIT with thrombosis
Source text: A person experienced pregnancy-induced hypertension and sudden weight gain during the third trimester of pregnancy. Premature labor led to the delivery of twins at 31 weeks gestation. After delivery, the patient remained hypertensive. On post-partum day 7, they awoke with chest pain and shortness of breath. They were lethargic with a blood pressure of 190/96 mm Hg and heart rate 135 beats per minute.
On postpartum day 10, the patient was transferred to another hospital for left hemiparesis. A non-hemorrhagic right cerebral infarction was confirmed by computed tomography. During days 4 to 7 of heparin therapy, platelet counts fluctuated between 163×10^9/L and 99×10^9/L with no clear downward trend. A platelet count was not obtained on day 8. However, on day 9 of heparin therapy, the patient's right leg became ischemic and their platelet count decreased to 34×10^9/L. HIT was suspected and heparin was immediately discontinued. The patient was taken to the operating room and Fogerty balloon thrombectomy of the right superficial and profunda arteries removed a typical red, fleshy acute thrombus. The clinical diagnosis of HIT with thrombosis was confirmed by the detection of heparin/PF4 antibodies in the patient's day 9 serum (but not in their serum from day 3) using an in-vitro functional test, the serotonin release assay (SRA).
An alternative anticoagulant was needed for further treatment of their pulmonary embolism and to prevent further thrombosis of the right femoral artery. The direct thrombin inhibitor Argatroban was initiated at 2 mcg/kg/min and titrated to achieve an activated partial thromboplastin time (aPTT) of 1.5 to 3.0 times the patient's baseline aPTT value.
After 6 days of Argatroban monotherapy and recovery of the platelet count to >100×10^9/L, warfarin was initiated concomitantly. Warfarin was started at the expected daily dose of 5 mg. On the 4th day of concomitant therapy, Argatroban infusion was held for 4 hours (to eliminate the effects of Argatroban on the INR) and the INR was rechecked to assure a therapeutic INR on warfarin alone. The INR was 2.1, which is considered therapeutic for the underlying medical condition, so the Argatroban was discontinued.

[4] = tested on: patient with HIT with thrombosis; assay: Example 3 patient case: Argatroban with transition to warfarin, avoiding warfarin-induced skin necrosis and venous limb gangrene
Source text: The following patient case is an example of an appropriate transition to warfarin, because Argatroban therapy is continued for at least 5 days and until the patient's platelet count has recovered to >100×10^9/L. In addition, concomitant therapy with Argatroban and warfarin overlaps for at least 4-5 days.
A person presented to the hospital with an acute myocardial infarction, for which they received tissue plasminogen activator and heparin. Their platelet count was 190×10^9/L on admission. They underwent coronary artery bypass grafting several days later, and heparin was continued throughout the peri-operative period. Postoperatively, the patient experienced atrial fibrillation, and warfarin was initiated. Four days postoperatively, they developed pain and discoloration of the left breast and right leg. The platelet count was 60×10^9/L and the INR was 6.1. Unfortunately, the breast and leg lesions progressed rapidly and the patient ultimately required a mastectomy and below the knee amputation. Five weeks later, they were readmitted with upper extremity swelling. The platelet count was 126×10^9/L on readmission. Ultrasound confirmed axillary/subclavian and femoral venous thromboses, for which heparin therapy was re-initiated. The platelet count fell from 126×10^9/L to 26×10^9/L after 3 days of intravenous heparin, and the diagnosis of HIT with thrombosis was made. The patient's initial breast and leg lesions are examples of warfarin-induced skin necrosis and venous limb gangrene, respectively, which are possible clinical manifestations of HIT. The patient was started on Argatroban 2 mcg/kg/min and the dose was titrated to maintain aPTT values between 1.5 and 3 times their baseline aPTT. […] Argatroban was continued for 11 days. On day 6 of Argatroban therapy, warfarin was initiated at the estimated daily dose of 5 mg. At that time, the platelet count was 150×10^9/L. Concomitant therapy with Argatroban and warfarin was continued for […] in accordance with the recommended overlap of 4 to 5 days. On the 5th day of concomitant therapy, the Argatroban was held for 6 hours and the INR value reflecting warfarin therapy alone was checked. The INR was 2.9 and the Argatroban infusion was subsequently discontinued. • See e.g.: • Warkentin T E, Elavathil L J, Hayward C P M, et al. The pathogenesis of venous limb gangrene associated with heparin-induced thrombocytopenia. Ann Intern Med. 1997; 127:804-812. • Smythe M A, Warkentin T E, Stephens J L, et al. Venous limb gangrene during overlapping therapy with warfarin and a direct thrombin inhibitor for immune heparin-induced thrombocytopenia. Am J Hematol 2002; 71:50-52. • Srinivasan A F, Rice L, Bartholomew J R, et al. Warfarin-induced skin necrosis and venous limb gangrene in the setting of heparin-induced thrombocytopenia. […]

CC1CNc2c(cccc2S(=O)(=O)N[C@@H](CCCNC(=N)N)C(=O)N2CC[C@@H](C)C[C@@H]2C(=O)O)C1 (stereo partly shown) [Argatroban]
patients who experienced the composite endpoint of either death, amputation or new thrombosis ([1]; 41 patients with platelet count <100×10^9/L on the day argatroban therapy was discontinued): 61%
patients who experienced the composite endpoint of either death, amputation or new thrombosis ([1]; 124 patients with platelet count >100×10^9/L on the day argatroban therapy was discontinued): 31.5%
platelet count ([2]; day 4 of Argatroban, initiated at 2 mcg/kg/min, 41×10^9/L before): 6.2e+10 L⁻¹
platelet count ([2]; day 6 of Argatroban): 7.8e+10 L⁻¹
platelet count ([2]; day 8 of Argatroban): 1.1e+11 L⁻¹
platelet count ([2]; day 10 of Argatroban): 1.8e+11 L⁻¹
recovery of the platelet count ([3]; after 6 days of Argatroban monotherapy): > 1e+11 L⁻¹
platelet count ([3]; hospital day 10, day 2 of Argatroban therapy, 34 × 10^9/L prior to initiation): 5.5e+10 L⁻¹
platelet count ([3]; hospital day 13, day 5 of Argatroban therapy): 1.1e+11 L⁻¹
platelet count ([3]; hospital day 14, day 6 of Argatroban therapy): 1.6e+11 L⁻¹
platelet count ([3]; hospital day 16, day 8 of Argatroban therapy (warfarin concomitant)): 1.49e+11 L⁻¹
platelet count ([3]; hospital day 18, day 10 of Argatroban therapy (warfarin concomitant)): 2.1e+11 L⁻¹
platelet count ([3]; hospital day 20, day 12 of Argatroban therapy): 2.8e+11 L⁻¹
platelet count ([4]; day 6 of Argatroban therapy, when warfarin was initiated, 26×10^9/L before Argatroban): 1.5e+11 L⁻¹

CC(=O)CC(c1ccccc1)c1c(O)c2ccccc2oc1=O (stereo not shown) [warfarin]
INR on warfarin alone ([3]; warfarin 5 mg daily, 4th day of concomitant therapy, Argatroban infusion held for 4 hours): 2.1
INR ([4]; four days postoperatively, warfarin initiated during heparin exposure, onset of skin necrosis and venous limb gangrene, platelet count 60×10^9/L): 6.1
INR value reflecting warfarin therapy alone ([4]; warfarin 5 mg daily, 5th day of concomitant therapy, Argatroban held for 6 hours): 2.9

heparin
platelet count ([3]; human, in vivo): 3.4e+10 L⁻¹
platelet count ([4]; human, in vivo, iv): 2.6e+10 L⁻¹

— patent publication US20060198836A1, “Method of treating hit patients with argatroban” (Smithkline Beecham Corporation, priority 2003, published 2006)
